# Entries after “also recorded” stand apart in the source; their conditions may differ. Like-named read-outs stand apart in the source and are kept apart here.
# Experiments:
# human cancer patients = settings: cited from earlier work
# [1] = tested on: multidrug resistant tumor cells; test: effects on vincristine (VBL substituted by vincristine in Example 3); format: cell-based
# Source text: In accordance with the invention VBL can be substituted by vincristine in Example 3.
# [2] = tested on: GRC-1 multidrug resistant human cervical carcinoma cells; test: efflux of VBL, GRC-1; format: cell-based; settings: 50 μM masoprocol
# Experimental: A further test was conducted to show the effect of masoprocol on the efflux of VBL from cells. Cells were incubated with [^3 H]VBL with or without 50 μM masoprocol for 2 hours. The medium was then replaced with drug-free medium. After incubation for various times, the amount of VBL remaining in the cells was determined as described above. The data was presented in terms of the percentage of VBL remaining at various efflux times compared to VBL in cells with an efflux time of zero. In FIGS. 3a and 3b, efflux is expressed as pmol VBL. In FIGS. 3c and 3d, efflux is expressed as percentage of VBL levels at time zero.
# [3] = tested on: Lung (NCI-H23) cancer cells; test: in vitro cytotoxicity anti tumor activity; format: cell-based; settings: Homo sapiens, read-out: IC50
# SNB Glioblastoma cells = test: in vitro cytotoxicity anti tumor activity; format: cell-based; settings: read-out: IC50
# stability to oxidation = format: physicochemical; settings: for example, by air
# Source text: The pH of the formulation is important in assuring stability of NDGA or its analogue as well as assuring that the formulation is physiologically acceptable to the patient. […] Such oxidation can result in discoloration of the formulation rendering it unacceptable for pharmaceutical use. […] Therefore, it is preferred that if the formulation is to be exposed to oxidizing conditions the pH to be maintained below about 7 and preferably below about 6 in order to provide maximum stability for the compound against oxidation. However, if the oxidizing conditions can be avoided, for example, by storage of the formulation under an inert atmosphere such as nitrogen, a higher pH can be used. The pH of the formulation may be maintained through the use of toxicologically-acceptable buffers. Such buffers are well-known in the pharmaceutical formulation art, and include hydrochloric acid buffer, acid phthalate buffer, phosphate buffer and citric acid/sodium citrate buffer.
# [4] = tested on: GRC-1 multidrug resistant human cervical carcinoma cells; test: inhibition of colony formation, GRC-1; format: cell-based; settings: Homo sapiens, 240 h, read-out: IC50 (Masoprocol), 50% inhibition of colony formation; 10 days, 37° C.; parenthesis: standard deviation
# Source text: To investigate whether masoprocol modulates multidrug resistance, a line of multidrug resistant (GRC-1) cells which were derived from parenteral drug sensitive human cervical carcinoma (KB-3-1) cells by transfection of the mdr1 genes were employed. Such transfection was by the method set forth in Choi, et al., Cell 53:519-529, 1989. These cell lines differ only with respect to the over-expression of P-glycoprotein. These tests were designed to examine whether masoprocol modulates tumor cell drug resistance by interfering with P-glycoprotein function. […] See, Regulation of initial vinblastine influx by P-glycoprotein, Shalinsky, et al., cited above.
# Masoprocol was provided by Chemex Pharmaceuticals, Inc. (Fort Lee, N.J.). Tritiated vinblastine ([^3 H]VBL) (10 Ci mmol^-1) was purchased from Moravek Biochemicals (Brea, Calif.), stored in the dark at -80° C. and protected from light during the experiments. Dipyridamole (DPM) was provided by Boerhinger Ingelheim Pharmaceuticals, Inc. (Ridgefield, Conn.).
# Drug-sensitive KB-3-1 cells and the drug resistant subline (KB-GRC-1) were obtained from Dr. Igor Roninson (University of Illinois, College of Medicine, Chicago, Ill.). Cells were maintained in Dulbecco's modified Eagle's medium supplemented with 10% fetal bovine serum and 2 mM glutamine. The KB-GRC-1 cells were maintained in medium supplemented with 6 ng/ml colchicine.
# First, cells which had been seeded at 200-300 cells/dish were incubated in media containing masoprocol or VBL. After an incubation period of 10 days at 37° C. the cells were fixed with methanol and stained with Giemsa, and the number of colonies per dish were counted and expressed as a percent of the number of colonies in control conditions. […] Parenthesis indicate standard deviations determined from replicate experiments.
# [5] = tested on: GRC-1 multidrug resistant human cervical carcinoma cells; test: steady state accumulation of VBL, GRC-1; format: cell-based
# Experimental: At the desired time, the medium was aspirated and cells washed 5 times with ice cold PBS. Cells were digested overnight in 1N NaOH, at which time aliquots were used to determine protein content and radioactivity. The final concentration of VBL was 6 nM.
# Cells were incubated for one hour with media containing either tritiated vinblastine (^3 H]VBL) alone or containing [^3 H]VBL with 50 μM masoprocol. Cells were then washed with ice cold PBS and the amount of VBL accumulated in cells was determined using a scintillation counter. In FIG. 1 each data point represents the mean of replicate experiments performed with duplicate cultures. Vertical bars are +/- S.D.
# LOX-IMVI Melanoma cells = test: in vitro cytotoxicity anti tumor activity; format: cell-based; settings: Homo sapiens, read-out: IC50
# [6] = tested on: KB-3-1 human cervical carcinoma cells; test: initial influx of VBL, KB-3-1; format: cell-based; settings: 50 μM masoprocol added concurrently with VBL, 3 to 24 seconds; FIG. 4b
# Experimental: A further test was conducted to show the effect of masoprocol on the initial influx of VBL. Cells were exposed to media containing [^3 H]VBL with and without 50 μM masoprocol. After incubation times ranging from 3 seconds to 24 seconds, the media was removed. The amount of VBL taken up by the cells was determined as described in A. The data was summarized from four replicate experiments. FIG. 4apresents the results for the GRC-1 cell line, and FIG. 4b for the KB-3-1 cell line.
# [7] = Continuous Drug Exposure, observation at 70 hours
smiles,measurement,setting,value
"C[C@H](Cc1ccc(O)c(O)c1)[C@@H](C)Cc1ccc(O)c(O)c1 [Masoprocol, meso-1,4-bis (3,4-dihydroxyphenyl)-2,3-dimethylbutane]",stimulation of tumor cell growth,human cancer patients; in some cases,in some cases caused stimulation of tumor cell growth
same,effectiveness as anticancer agent,human cancer patients; ingested tea made from creosote bush or pure NDGA,neither NDGA nor the tea were effective anticancer agents
same,effects on vincristine compared with VBL,[1],comparative effects
same,modulation of VBL efflux,[2],does not modulate VBL efflux
same,VBL levels at efflux time zero,"[2]; 2 hours, FIG. 3a",higher in masoprocol-treated cells
same,percent of VBL retained at various efflux time points,[2]; FIG. 3c,not affected by masoprocol treatment
same,modulation of VBL efflux,[2]; listed as masoprocol,does not influence the rate of efflux of VBL
same,IC50,"[3]; NCI-H23, 1 h, One Hour Pulse Treatment",172 µM
same,IC50,"[3]; NCI-H23, Continuous Drug Exposure, observation at 70 hours",0.08 µM
same,IC50,"SNB Glioblastoma cells; 1 h, One Hour Pulse Treatment",312 µM
same,IC50,SNB Glioblastoma cells; [7],0.08 µM
same,susceptibility to oxidation,stability to oxidation,susceptible to oxidation
same,IC50,[4],66.8 µM
same,"steady state accumulation of VBL, compared with verapamil",[5]; 50 μM masoprocol,comparable to that of 10 μM verapamil
same,steady state accumulation of VBL,"[5]; one hour, masoprocol with [3H]VBL",dose-dependent increase in the steady state accumulation of VBL; also recorded: increases the steady state accumulation of VBL
same,IC50,"LOX-IMVI Melanoma cells; 1 h, One Hour Pulse Treatment",38.4 µM
same,IC50,LOX-IMVI Melanoma cells; [7],0.08 µM
same,initial VBL uptake (influx),[6],substantial increase in initial VBL uptake; also recorded: effective modulator of initial VBL influx; also recorded: promotes the initial uptake of VBL

# Reference: patent US5541232A, “Treatment of multidrug resistant diseases” (Chemex Pharmaceuticals, Inc., priority 1994, dated 1996)
